{"source": "ChEMBL document CHEMBL2440070", "about": "“Synthesis and evaluation of novel azetidine analogs as potent inhibitors of vesicular [3H]dopamine uptake” (Bioorg Med Chem, 2013)", "data": [{"molecular_target": "Synaptic vesicular amine transporter (Rattus norvegicus, UniProt Q01827)", "sequence (Q01827 whole entry)": "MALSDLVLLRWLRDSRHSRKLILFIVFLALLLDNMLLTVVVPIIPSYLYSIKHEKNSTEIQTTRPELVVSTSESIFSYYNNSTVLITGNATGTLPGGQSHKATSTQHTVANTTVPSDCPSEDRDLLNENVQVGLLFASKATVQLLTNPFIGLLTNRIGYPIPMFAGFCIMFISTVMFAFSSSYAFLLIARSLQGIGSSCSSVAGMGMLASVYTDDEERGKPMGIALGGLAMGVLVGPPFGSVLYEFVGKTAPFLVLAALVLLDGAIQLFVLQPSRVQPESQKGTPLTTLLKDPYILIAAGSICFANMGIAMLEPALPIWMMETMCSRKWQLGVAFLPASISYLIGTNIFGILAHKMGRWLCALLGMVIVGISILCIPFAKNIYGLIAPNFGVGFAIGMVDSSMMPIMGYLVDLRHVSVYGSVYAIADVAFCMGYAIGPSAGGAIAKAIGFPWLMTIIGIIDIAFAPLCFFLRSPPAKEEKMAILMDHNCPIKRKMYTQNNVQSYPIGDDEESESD", "assay": "Inhibition of VMAT2-mediated [3H]-dopamine uptake in rat striata isolated synaptic vesicles by liquid scintillation spectroscopy", "units": {"Ki": "nM"}, "values": [{"smiles": "c1ccc(CC[C@H]2CCC[C@@H](CCc3ccccc3)N2)cc1", "Ki": 43}, {"smiles": "c1ccc(CC[C@@H]2C[C@H](CCc3ccccc3)N2)cc1", "Ki": 62}, {"smiles": "COc1ccc(CC[C@@H]2C[C@H](CCc3ccc(OC)cc3)N2)cc1", "Ki": 24}, {"smiles": "c1cc2c(cc1CC[C@@H]1C[C@H](CCc3ccc4c(c3)OCO4)N1)OCO2", "Ki": 55}, {"smiles": "c1ccc(CC[C@@H]2C[C@@H](CCc3ccccc3)N2)cc1", "note": "(racemic)", "Ki": 48}, {"smiles": "COc1ccc(CC[C@@H]2C[C@@H](CCc3ccc(OC)cc3)N2)cc1", "note": "(racemic)", "Ki": 66}, {"smiles": "c1cc2c(cc1CC[C@@H]1C[C@@H](CCc3ccc4c(c3)OCO4)N1)OCO2", "note": "(racemic)", "Ki": 31}]}]}
